The results in this text go back to paper PMC8042770, “Odorant Receptors for Detecting Flowering Plant Cues Are Functionally Conserved across Moths and Butterflies” (Molecular Biology and Evolution, 2020).

Molecules are shown by their SMILES. “Also recorded” adds a separate entry of the source.

Test [1] has as its system H. armigera third instar larvae. Description: Petri dish choice assay, third instar larvae. Type of test: in vivo, Helicoverpa armigera. The method, then:
Our results provide strong evidence that PAA, via its detection by HarmOR42, is an important host plant cue in both larval and adult stages of H. armigera.
For assessing larval behavior to PAA, the experiments were performed in closed plastic Petri dishes of 15 cm diameter (fig. 6D) as in [Poivet et al. (2013)] with some modifications. To ascertain the choice zone, we tracked the behavior trajectory of larvae to a regular diet. A piece of regular diet nutrition was placed at one of the opposite ends of the dish along the diameter. Ten third instar larvae were placed in the middle of the dish. The location of larvae was marked every 10 min for 1 h. Four replications were performed. Most of the larvae made choices within 40 min, so this time point was selected for choice statistics. For the choice behavior test, PAA and paraffin oil (solvent) were respectively added onto a piece of 1 × 1 cm filter paper and the papers were arranged at opposite ends. The two-choice zones were delineated by 4-cm radius half circles centered at each of the filter papers. The choice indexes (CI) were calculated using the formula: CI = (P − C)/T, where P represents the number of larvae that entered the PAA choice zone, C represents the number of larvae that entered the solvent zone, and T represents the total number of larvae in the test (ten larvae). We first determined the efficient test dose using three different dilutions of PAA (0.1, 1, and 10 μg) against wild-type larvae. The CI of larvae to PAA was compared with a blank (solvent on each side of the dish). […] Therefore, we used 1 μg of PAA to test the choice behavior of mutant larvae. Ten replicates were performed for each test.

The test system of test [2] is H. armigera moth antennae. Briefly: Electroantennography (EAG), wild-type vs HarmOR42 knock-out moths. Conditions: single odorants, 1 μg. Type of test: in vivo, Helicoverpa armigera. The source says:
We next conducted a loss-of-function study by generating a HarmOR42-lacking H. armigera strain by CRISPR/Cas9 targeting the first coding exon. Homozygous mutants were obtained with a large segment deletion of 203 bp and a 6-bp nonhomologous insertion in the genome (fig. 6B), introducing a premature stop codon in the coding sequence. […] The most likely hypothesis is that HarmOR42 is not the major receptor for sensing this compound in H. armigera. As a control, we tested the response of male moths to the sex pheromone component Z11-16: Ald that is not a ligand of HarmOR42. As expected, we observed no difference between the EAG responses of mutant and wild-type moths to this compound.
The antennae of 2- to 3-day-old virgin male and female moths were cut at the base of the flagellum. After removing the tip, one antenna was inserted between two glass electrodes filled with 0.1 M KCl solution. In each test, a 10-μl solution of each odorant was added onto a piece of filter paper (0.5 cm × 0.5 cm) and then inserted into a Pasteur pipette. About 100 ng/μl stock solutions of individual odorants and different doses of the mixture IAC were prepared with paraffin oil. A continuous airflow of 30 ml/s was produced by a stimulus controller (CS-55, Syntech, Kirchzarten, Germany). Odor stimulation was controlled by a puff of purified air (0.2 s at 10 ml/s airflow) from the CS-55. EAG signals were amplified with a 10× AC/DC headstage preamplifier (Syntech) and further acquired with an Intelligent Data Acquisition Controller (IDAC-4-USB, Syntech) ([Cao et al. 2016]). The signals were recorded, monitored, and analyzed using Syntech EAG-software (Syntech, Germany). The EAG response values for each compound were calculated by subtracting the value of the same antennae corresponding to a solvent blank of paraffin oil.

A further test addresses HarmOR42 (Helicoverpa armigera, UniProt A0A7T3KAF6). Description: Xenopus oocyte two-electrode voltage clamp, HarmOR42 + Orco. Format: cell-based. The source says:
In preliminary screening, we used a high dosage (10^−4 M) of odorants. […] Most functional ORs responded robustly to multiple odorants. The strongest response (up to ∼6,000 nanoampere, nA) we detected was that of HarmOR42 toward the aromatic compound PAA. Further, the response profiles of the 28 HarmORs appeared to be highly differentiated, with no apparent overlap in their tuning spectra (with the exception of HarmOR12 and 36) according to functional cluster analysis (fig. 1A).
In order to expand our analysis on the response properties of HarmORs, we conducted dose–response analyses for the 28 functional HarmORs. […] Six HarmORs (OR3, 22, 48, 50, 56, and 66) could not be activated by any ligand at 10^−5 M. For the other 22 HarmORs, dose–response curves were generated and EC50 values of their major ligands were calculated (fig. 2A and supplementary table S2, Supplementary Material online). The HarmOR repertoire was highly efficient in terpene detection, since the lowest EC50 values were obtained for such compounds. Many of these terpenes have been proposed to be defensive chemicals of plants. […] DMNT is also one of the oviposition deterring compounds found in larval frass of some Lepidoptera species such as S. littoralis ([Anderson et al. 1993]).
Functional characterization of individual ORs was performed by heterologous expression in Xenopus oocytes combined with a two-electrode voltage-clamp system ([Wang et al. 2010]). Briefly, the full-length gene of each OR and Orco were subcloned into the eukaryotic expression vector pT7TS. cRNAs were generated from linearized expression vectors using the mMESSAGE mMACHINE T7 kit (Ambion, Austin, TX). Then, the cRNA mixture of ORx and Orco (27.6 ng each) was injected (Nanoliter 2010, WPI Inc., Sarasota, FL) into oocytes (stage V–VII). The respective Orcos of different species were used for functional studies of OR42 orthologs except for the four butterfly species (V. tameamea, P. xuthus, D. plexippus, and P. rapae), in which we used the Orco from P. xuthus. After incubation in nutrient solution at 18 °C for 3–5 days, the response profile of each oocyte to multiple plant odorants was recorded via a two-electrode voltage clamp (OC-725C oocyte clamp, Warner Instruments, Hamden, CT) at a holding potential of −80 mV. Data were acquired by using a Digidata 1440 A and were analyzed by pCLAMP 10.2 software (Axon Instruments Inc., Union City, CA).
Stock solutions of each odorant were prepared at 1 M using DMSO as a solvent, and each odorant was diluted in 1× Ringer’s solution to the indicated concentrations for electrophysiological recording. For functional screening of each HarmOR, a panel of 67 odorants belonging to three types of chemical classes: terpenes, aromatics, and aliphatics (short-chain fatty acid) were used (supplementary table S1, Supplementary Material online). For functional studies of OR42 orthologs from different species, six odorants including PAA, benzaldehyde, (E)-2-hexen-1-al, cinnamaldehyde, 2-phenylethanol, and heptanal were used.
On the technique in general: In two-electrode clamp one electrode senses voltage and the other passes current.

Sequence of HarmOR42 (A0A7T3KAF6 entry or part of it): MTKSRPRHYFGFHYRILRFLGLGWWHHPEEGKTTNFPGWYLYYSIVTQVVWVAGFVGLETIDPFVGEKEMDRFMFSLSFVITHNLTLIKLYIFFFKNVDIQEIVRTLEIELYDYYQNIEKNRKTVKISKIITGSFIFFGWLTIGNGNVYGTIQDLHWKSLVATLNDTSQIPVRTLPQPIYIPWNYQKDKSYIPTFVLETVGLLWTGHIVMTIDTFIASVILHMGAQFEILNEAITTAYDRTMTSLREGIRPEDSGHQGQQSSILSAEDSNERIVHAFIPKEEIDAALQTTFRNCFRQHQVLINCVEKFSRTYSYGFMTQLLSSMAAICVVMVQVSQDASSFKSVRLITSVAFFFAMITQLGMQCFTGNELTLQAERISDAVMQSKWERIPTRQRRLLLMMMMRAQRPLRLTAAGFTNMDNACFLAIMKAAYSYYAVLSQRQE

On to `O=CCc1ccccc1` [Phenylacetaldehyde], for which, in test [1] (third instar, knock-out, 1 μg), the “preference of HarmOR42 knock-out mutant larvae” value was “lost their preference”. The “attractive effect on wild-type larvae” value in test [1] (third instar, wild type, 1 μg, 40 min) is listed as “significantly attracted”. For the same compound, in test [1] (wild-type larvae, 0.1, 1 and 10 μg tested), the “dose giving the most positive choice” value stood at 1 µg. Further, the “EAG response of HarmOR42 knock-out mutants compared with wild-type moths” value in test [2] is on record as “significantly decreased”. In addition, the EC50 at HarmOR42 amounted to 48 µM. In addition, the “ligand tuning of HarmOR42” value at HarmOR42 (67 odorants at 10^−4 M, listed as PAA) is “largest response; also recorded: high specificity and sensitivity”. In addition, at HarmOR42 (HarmOR42, odorant 10^−4 M, strongest response detected), the current response is on record as ~6,000 nA.

As a reminder, the EC50 is the concentration that produces a half-maximal response.
